{
  "source": "patent US20260182571A1",
  "about": "“A ME[…] AND USE THEREOF” (I-TECH AB, priority 2022, published 2026)",
  "origin": "cited, not measured here",
  "settings": "pH 7 and 20° C.",
  "data": [
    {"molecule": "On1ccccc1=S.On1ccccc1=S.[Cu]", "note": "[CuPT, copper (II) pyrithione]", "values": [
      {"measurement": "(equilibrium) water solubility", "value": "less than 0.039 mg/L"}
    ]}
  ]
}
